For this test, the target named is 5-hydroxytryptamine receptor 5A (Mus musculus, UniProt P30966).

Structures are written as SMILES.

Sequence of 5-hydroxytryptamine receptor 5A (P30966 whole entry): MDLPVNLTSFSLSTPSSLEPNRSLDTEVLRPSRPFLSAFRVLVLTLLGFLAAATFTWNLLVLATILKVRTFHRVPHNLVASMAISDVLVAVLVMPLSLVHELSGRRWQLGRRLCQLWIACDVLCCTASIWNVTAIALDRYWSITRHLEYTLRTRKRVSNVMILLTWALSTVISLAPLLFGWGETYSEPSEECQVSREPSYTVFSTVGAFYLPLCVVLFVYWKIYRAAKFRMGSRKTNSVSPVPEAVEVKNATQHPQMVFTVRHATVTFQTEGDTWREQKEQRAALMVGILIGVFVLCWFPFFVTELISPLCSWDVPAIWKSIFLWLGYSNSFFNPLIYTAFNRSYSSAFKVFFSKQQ

For `CCCN(CCC)C1CCc2cccc(O)c2C1` (centres undefined), the Ki (commonly a dissociation constant, usually derived from enzyme kinetics or from competition with a known ligand) is 1.26 µM.
In the case of `CC[C@@H](CO)NC(=O)[C@@H]1C=C2c3cccc4c3c(cn4C)C[C@H]2N(C)C1` it was 0.0631 µM; in that of `NCCc1ccc(O)c(O)c1`, over 10 µM.
In turn, `O=C(c1ccc(F)cc1)C1CCN(CCn2c(=O)[nH]c3ccccc3c2=O)CC1` [3-(2-{4-[(4-fluorophenyl)carbonyl]piperidin-1-yl}ethyl)-1,2,3,4-tetrahydroquinazoline-2,4-dione] registered a Ki of over 10 µM.
Take `CN(C)CCc1c[nH]c2ccc(O)cc12` [3-[2-(dimethylamino)ethyl]indol-5-ol]: the Ki was 1 µM.
`COc1ccc2[nH]cc(C3=CCNCC3)c2c1` [5-Methoxy-3-(1,2,3,6-tetrahydro-pyridin-4-yl)-1H-indole(RU-24969)] displayed a Ki of 0.316 µM.
On to `O=C(CCCN1CCC2(CC1)C(=O)NCN2c1ccccc1)c1ccc(F)cc1` [8-[4-(4-fluorophenyl)-4-oxidanylidene-butyl]-1-phenyl-1,3,8-triazaspiro[4.5]decan-4-one], for which the Ki was determined as 2.51 µM.
The result for `CN1C[C@H](C(=O)N[C@]2(C)O[C@@]3(O)[C@@H]4CCCN4C(=O)[C@H](Cc4ccccc4)N3C2=O)C=C2c3cccc4[nH]cc(c34)C[C@H]21` [12'-hydroxy-2'-methyl-5'alpha-(phenylmethyl)ergotaman-3',6',18-trione] reads 0.00398 µM.
`CC(C)NCC(O)COc1cccc2[nH]ccc12` (centres undefined) [LB-46] came in with a Ki of over 10 µM.
In turn, `CCN(CC)C(=O)[C@@H]1C=C2c3cccc4[nH]c(Br)c(c34)C[C@H]2N(C)C1` [LSD,2-Bromo] gave a Ki of 0.00199 µM.
`NCC(O)c1ccc(O)c(O)c1` (stereo not drawn) [Noradrenaline,(+)] yielded a Ki of over 10 µM.
Regarding `CNS(=O)(=O)Cc1ccc2[nH]cc(CCN(C)C)c2c1` [Sumax], the Ki was over 10 µM.
Turning to `FC(F)(F)c1cccc(N2CCNCC2)c1` [TFMPP], the affinity, expressed as Ki, was 2.51 µM.
Regarding `CSc1ccc2c(c1)C(N1CCN(C)CC1)Cc1ccccc1S2` (centres undefined) [methanesulfonic acid;1-methyl-4-(3-methylsulfanyl-5,6-dihydrobenzo[b][1]benzothiepin-5-yl)piperazine], the Ki worked out at 0.1 µM.

These data come from BindingDB's records for PubMed 1464308 (Cnrs, 1992).
